Here are results for nine compounds from US6403831B1, “Substituted benzylidene indenyl formamides, acetamides and propionamides” (Cell Pathways, Inc., priority 1996, dated 2002).

Bounds are passed on as bounds.

Experiment [1] relates to human colon carcinoma cell line, SW-480. Put plainly: Growth inhibition, Sulforhodamine B (SRB) protein binding assay. In kind it is cell-based. The settings on record: SW-480 cell line, six days continuous exposure. How it is done:
These compounds were assayed for their growth inhibitory activity on the human colon carcinoma cell line, SW-480 obtained from ATCC (Rockville, Md.), to ascertain the degree of growth inhibition. Growth inhibition of this cell line is indicative of a benefit on precancerous lesions and neoplasms. The cell line and growth assay employed for these experiments are well characterized, and are used to evaluate the anti-neoplastic properties of NSAIDs. The assay is used by the United States National Cancer Institute in its screening program for new anti-cancer drugs.
Drug stock solutions were made in 100% DMSO then diluted with RPMI media for cell culture testing. All drug solutions were prepared fresh on the day of testing. The cultured cells were obtained at passage #99 and grown in RPMI media supplemented with 5% fetal calf serum, and 2 mM glutamine, 100 U/ml penicillin, 100 U/ml streptomycin, and 0.25 μg/ml amphotericin. The cultures were maintained in a humidified atmosphere of 95% air and 5% CO2 at 37° C. The cultures were passaged at preconfluent densities using a solution of 0.05% trypsin and 0.53 mM EDTA. Cells were plated at 1000 cells/well for 96 well flat-bottom microtiter plates.
Tumor cell growth inhibition was assessed using the Sulforhodamine B (SRB) protein binding assay. In this assay, tumor cells were plated in 96-well plates and treated with drug-containing media for six days (continuous exposure). For each plate, 6 wells were designated as no treatment controls, six wells as vehicle (0.1% DMSO) controls, and the remaining wells for drug dilutions with three wells per drug concentration. At the end of the exposure period, the cells were fixed and stained with sulforhodamine B, a protein binding dye. The dye was then solubilized, and the optical density of the resulting solution was determined on a 96-well plate reader. The mean dye intensity of the treated wells was then divided by the mean dye intensity in the control wells (6 wells of each) to determine the effect of the drug on the cells. Dye intensity is proportional to the number of cells or amount of protein per well. The resultant “percent inhibition” value then represents the degree of growth inhibition caused by the drug.
For each experiment, an IC50 value was determined and used for comparative purposes. This value is equivalent to the concentration of drug needed to inhibit tumor cell growth by 50%. IC50 values were obtained graphically by connecting the mean values for each drug concentration tested. Each experiment included at least three wells per drug concentration. Concentration was plotted on a log scale on the X-axis.

Experiment [2] addresses T1, COX I (Ovis aries, UniProt P05979).
T1 construct: The COX was purified form ram seminal vesicles; from tissue; host or cells: ram seminal vesicles
T1 sequence (P05979 25-600): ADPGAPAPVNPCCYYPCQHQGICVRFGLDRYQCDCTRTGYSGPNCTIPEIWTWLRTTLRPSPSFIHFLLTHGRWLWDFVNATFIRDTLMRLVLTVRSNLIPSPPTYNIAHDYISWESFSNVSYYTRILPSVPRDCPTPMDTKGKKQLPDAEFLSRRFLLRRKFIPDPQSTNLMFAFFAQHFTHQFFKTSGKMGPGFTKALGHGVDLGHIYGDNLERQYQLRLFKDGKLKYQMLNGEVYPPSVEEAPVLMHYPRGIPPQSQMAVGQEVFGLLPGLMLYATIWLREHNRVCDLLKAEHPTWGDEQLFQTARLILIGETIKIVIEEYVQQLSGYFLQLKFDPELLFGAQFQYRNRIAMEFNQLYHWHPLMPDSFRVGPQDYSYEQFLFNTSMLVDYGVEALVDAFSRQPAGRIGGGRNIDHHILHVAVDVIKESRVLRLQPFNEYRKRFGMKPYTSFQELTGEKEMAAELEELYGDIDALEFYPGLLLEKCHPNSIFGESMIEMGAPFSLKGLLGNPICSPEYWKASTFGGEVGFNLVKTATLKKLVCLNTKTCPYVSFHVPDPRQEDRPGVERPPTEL
Put plainly: Cyclooxygenase (COX) inhibition, purified COX. In kind it is biochemical. The settings on record: 100 μM test compound; purified COX from ram seminal vesicles, arachidonic acid 100 μM. How it is done:
Compounds of this invention, as well as a positive control, sulindac sulfide were to determine whether they inhibited the production of cyclooxygenase (see Table 5 below).
COX catalyzes the formation of prostaglandins and thromboxane by the oxidative metabolism of arachidonic acid. The compounds of this invention were evaluated for inhibitory effects on purified COX. The COX was purified form ram seminal vesicles, as described by Boopathy, R. and Balasubramanian, J. 239:371-377, 1988. COX activity was assayed as described by Evans, A. T., et al., “Actions of cannabis constituents on enzymes of arachidonate metabolism anti-flammatory potential,” Biochem. Pharmacol., 36:2035-2037, 1987. Briefly, purified COX was incubated with arachidonic acid (100 μM) for 2.0 min at 37° C. in the presence or absence of test compounds. The assay was terminated buy the addition of TCA, and COX activity was determined by absorbance at 530 nm.

For experiment [3], the system named is HT-29 human colon carcinoma cells. Put plainly: Apoptosis by morphology (acridine orange/ethidium bromide, condensed chromatin). In kind it is cell-based. The settings on record: HT-29 cells. How it is done:
Apoptosis was measured using an assay of cell death based on morphological characteristics of apoptotic cells (i.e., condensed chromatin). Drug preparation and cell culture conditions were the same as for the SRB assay described above, except that HT-29 human colon carcinoma cells were employed/Confluent cultures were established in 12.5 cm^2 flasks by plating 0.5×10^6 cells/flask. The cultures were assayed for apoptosis by fluorescent microscopy following labeling with acridine orange and ethidium bromide. Floating and attached cells were collected by trypsinization and washed three times in PBS. One ml aliquots were centrifuged (3 g). The pellet was resuspended in 25 μl media and 1 μl of a dye mixture containing 100 μg/ml acridine orange and 100 μg/ml ethidium bromide prepared in PBS and mixed gently. Ten μl of mixture was placed on a microscope slide and covered with a 22 mm^2 coverslip and examined under 40×dry objectives using epillumination and filter combination.
An observer blinded to the identity of the treatments scored at least 100 cells per sample. Apoptotic cells were identified by nuclear condensation of chromatin stained by the acridine orange or ethidium bromide.

The test system of experiment [4] is SW-480 colon adenocarcinoma cells. Put plainly: Apoptosis by DNA fragmentation (Cell Death Detection ELISA plus). In kind it is cell-based, human. The note with it: SW-480 cells, 48 hrs; for EC50: by software or estimated from effective concentration range; for DNA Fragmentation FS (100 μM): fold stimulation FS=ODmax/ODveh. How it is done: Apoptosis was also measured based on the amount of fragmented DNA contained in cell lysates. Briefly, SW-480 colon adenocarcinoma cells were plated in 96-well microtitre plates (“MTP”) at a density of 10K cells/well in 180 μl and incubated for 24 hrs. Cells were then treated with 20 μl aliquots of appropriately diluted compound, and allowed to incubate for an additional 48 hrs.
After the incubation, samples were prepared according to the following steps. The MTP was centrifuged (15 min., 1000 rpm) and the supernatant was carefully removed by fast inversion of the MTP. The cell pellents in each well were then resuspended in ^200 μl lysis buffer and incubated for 45 min. at room temperature to lyse the cells. The lysates were then centrifuged (15 min., 1000 rpm) and 20 μl aliquots of the supernatant (=cytoplasmic fraction) were transferred into the streptavidin coated MTP for analysis. Care was taken not to shake the lysed pellets in the MTP (=cell nucleii containing high molecular weight, unfragmented DNA). Samples were analyzed immediately, because storage at 4 C or −20 C reduces the ELISA-signals.
Samples were then processed according to a DNA fragmentation assay protocol, and dose-response curves were generated based on optical density readings. Quantification of DNA was done by a commercially available photometric enzyme-immunoassay manufactured by Mannheim-Boehringer under the name “Cell Death Detection ELISA^plus”. The assay is based on a quantitative sandwich-enzyme-immunoassay-principle using mouse monoclonal antibodies directed against DNA and histones, respectively. This allows the specific determination of mono and oligonucleosomes in the cytoplasmatic fraction of cell lysates. In brief, the assay procedure is as follows. The sample (cell-lysate, serum, culture-supernatant etc.) is placed into a streptavidin-coated MTP. Subsequently, a mixture of anti-histone-biotin and anti-DNA-POD are added and incubated for 2 hours. During the incubation period, the anti-histone antibody binds to the histone-component of the nucleosomes and simultaneously fixes the immunocomplex to the streptavidin-coated MTP via its biotinylation. Additionally, the anti-DNA-POD antibody reacts with the DNA component of the nucleosomes. After removal of unbound antibodies by a washing step, the amount of nucleosomes is quantified by the POD retained in the immunocomplex. POD is determined photometrically with ABTS® (2,2′-Azino-di[3-ethylbenzthiazolin-sulfonat])* as substrate.
Fold stimulation (FS=ODmax/ODveh), an indicator of apoptotic response, was determined for each compound tested. EC50 values were determined either specifically by data analysis software, or by estimates based on the effective concentration range of each compound (ECR=min. effective dose-min. dose to peak effect). These FS and EC50 values for the tested compounds are listed above in Table 6.

For `COc1cc(/C=C2/C(C)=C(CC(=O)NCc3ccccc3)c3cc(F)ccc32)cc(OC)c1OC` [Example 1, (Z)-5-fluoro-2-methyl-1-(3,4,5-trimethoxybenzylidene)-3-(N-Benzyl)-indenylacetamide], in experiment [1], the IC50 – broadly, the concentration at which inhibition is half-maximal – was 40 nM. For the same compound, the “COX I % Inhibition (100 μM)” value in experiment [2] is below 25%. Also, in experiment [3], the “Morphology % Apoptotic Cells (1 μM)” value amounted to 73%. Further, in experiment [4], the concentration giving a half-maximal response (EC50) (commonly the concentration at which the effect is half-maximal) was 50 nM and the “DNA Fragmentation FS (100 μM)” value worked out at 4.6.
On to `COc1cc(/C=C2/C(C)=C(CC(=O)NCc3ccccc3Cl)c3cc(F)ccc32)cc(OC)c1OC` [Example 4, (Z)-5-fluoro-2-methyl-1-(3,4,5-trimethoxybenzylidene)-3-(N-2-chlorobenzyl)-indenylacetamide], for which, in experiment [1], the IC50 is 360 nM. In experiment [2], the “COX I % Inhibition (100 μM)” value is listed as below 25%. The “Morphology % Apoptotic Cells (1 μM)” value in experiment [3] was determined as 68%. Besides, in experiment [4], the EC50 is 250 nM and the “DNA Fragmentation FS (100 μM)” value came to 2.4.
As for `COc1cc(/C=C2/C(C)=C(CC(=O)NCc3cc(F)ccc3F)c3cc(F)ccc32)cc(OC)c1OC` [Example 8, (Z)-5-fluoro-2-methyl-1-(3,4,5-trimethoxybenzylidene)-3-(N-2,5-difluorobenzyl)-indenylacetamide], in experiment [1], the IC50 was determined as 120 nM. The “COX I % Inhibition (100 μM)” value in experiment [2] is listed as below 25%. The “Morphology % Apoptotic Cells (1 μM)” value in experiment [3] is listed as 48%. Further, in experiment [4], the half-maximal effective concentration (EC50) was 210 nM and the “DNA Fragmentation FS (100 μM)” value is given as below 2.
The compound `COc1ccccc1CNC(=O)CC1=C(C)/C(=C/c2cc(OC)c(OC)c(OC)c2)c2ccc(F)cc21` [Example 15, (Z)-5-fluoro-2-methyl-1-(3,4,5-trimethoxybenzylidene)-3-(N-2-methoxybenzyl)-indenylacetamide] registered an IC50 in experiment [1] of 390 nM. The “COX I % Inhibition (100 μM)” value in experiment [2] is listed as below 25%. Moreover, the “Morphology % Apoptotic Cells (1 μM)” value in experiment [3] turned out to be 72%. Also, in experiment [4], the EC50 is 300 nM and the “DNA Fragmentation FS (100 μM)” value worked out at 2.1.
`COc1ccc(CNC(=O)CC2=C(C)/C(=C/c3cc(OC)c(OC)c(OC)c3)c3ccc(F)cc32)c(OC)c1` [Example 19, (Z)-5-fluoro-2-methyl-1-(3,4,5-trimethoxybenzylidene)-3-(N-2,4-dimethoxybenzyl)-indenylacetamide] returned a half-inhibitory concentration (IC50) in experiment [1] of 4500 nM. Moreover, the “COX I % Inhibition (100 μM)” value in experiment [2] stood at 33.3%. Also, the “Morphology % Apoptotic Cells (1 μM)” value in experiment [3] is below 20%. In addition, in experiment [4], the EC50 is 7000 nM and the “DNA Fragmentation FS (100 μM)” value was determined as 2.
For `COc1cc(/C=C2/C(C)=C(CC(=O)Nc3ccccc3)c3cc(F)ccc32)cc(OC)c1OC` [Example 22, (Z)-5-fluoro-2-methyl-1-(3,4,5-trimethoxybenzylidene)-3-(N-phenyl)-indenylacetamide], in that order: 4500 nM, below 25%, 37%, 5000 nM and 2.3.
Compound `C#CCNC(=O)CC1=C(C)/C(=C/c2cc(OC)c(OC)c(OC)c2)c2ccc(F)cc21` [Example 27, (Z)-5-fluoro-2-methyl-1-(3,4,5-trimethoxybenzylidene)-3-(N-propargyl)-indenylacetamide] came in with an IC50 in experiment [1] of 220 nM. Also, the “COX I % Inhibition (100 μM)” value in experiment [2] was below 25%. For the same compound, the “Morphology % Apoptotic Cells (1 μM)” value in experiment [3] is listed as 71%. For the same compound, in experiment [4], the EC50 was 700 nM and the “DNA Fragmentation FS (100 μM)” value came out at 4.
For `C=CCNC(=O)CC1=C(C)/C(=C/c2cc(OC)c(OC)c(OC)c2)c2ccc(F)cc21` [Example 28, (Z)-5-fluoro-2-methyl-1-(3,4,5-trimethoxybenzylidene)-3-(N-allyl)-indenylacetamide], the IC50 in experiment [1] was 370 nM. Also, in experiment [2], the “COX I % Inhibition (100 μM)” value is below 25%. In addition, in experiment [3], the “Morphology % Apoptotic Cells (1 μM)” value is 35%. In addition, in experiment [4], the EC50 is 230 nM and the “DNA Fragmentation FS (100 μM)” value came to 2.3.
Consider `COc1cc(OC)c(/C=C2/C(C)=C(CC(=O)NCc3ccccc3)c3cc(F)ccc32)c(OC)c1` [Example 55, (Z)-5-fluoro-2-methyl-1-(2,4,6-trimethoxybenzylidene)-3-(N-benzyl)-indenylacetamide], for which the IC50 in experiment [1] stood at 500 nM. For the same compound, the “COX I % Inhibition (100 μM)” value in experiment [2] is on record as below 25%.
